{
  "source": "patent US11745001B2",
  "about": "“Therapeutic bandage” (University of Connecticut, priority 2020, dated 2023)",
  "description": "FIG. 4A illustrates a microneedle base 44 showing the hollow channel 50. FIG. 4B illustrates the microneedle base 44 coupled to the rapid-dissolving tips 40, which include tattoo ink. In one embodiment, the therapeutic bandage 10 may be producing the microneedles 26 and then coupling the microneedles 26 to the bandage matrix 30. In some embodiments, the microneedles 26 may be integrally formed with a portion of the bandage matrix 30. The microneedles are produced by forming the base 44, with the microchannel 50, and loading the base […] with the second immunomodulatory compound. The tip 40 is then produced and loaded with the first immunomodulatory compound. The tip 40 is then coupled to the base 44 to seal the microchannel […]. To test the mechanical strength of the microneedles 26, the tips 40 were loaded with insoluble tattoo ink (FIG. 4B). The microneedles 26 were then applied to cultured human skin explants using a 1 Newton application force. […] FIG. 4E illustrates a longitudinal section of explanted human skin showing spacing of microneedle deposition in the dermal layer. The kinetics of drug release were then measured using epifluorescence microscopy and two fluorescent dyes.",
  "data": [
    {"smiles": "CCN(CC)c1ccc2c(-c3ccc(S(=O)(=O)O)cc3S(=O)(=O)[O-])c3ccc(=[N+](CC)CC)cc-3oc2c1", "note": "[sulforhodamine B]", "values": [
      {"measurement": "diffusion radius compared with the tip dye", "result": "approximately equal diffusion radius"},
      {"measurement": "release of red fluorescence from the microneedle base", "result": "after about one hour"},
      {"measurement": "visibility of dye", "result": "barely visible"}
    ]}
  ]
}
